Test results taken from patent publication US20170159101A1, “DRUG-RESISTANT P97 ATPASE MUTATIONS” (Cleave Biosciences, Inc., priority 2014, published 2017).
Several values for one entry are separate records, joined by “and”; a condition that tells them apart may be missing. Identical values can stand only once.

What was measured:
Format in all cases: cell-based, human
[1] = tested on: Hct116 resistant cell line clone #108 (p97 P646T); assay: GI50 fold-change, resistant clone #108 vs parental; conditions: Clone #108, Hct116, resistance generated with compound 4, C1936A / P646T; 72 hrs
Description: (§1) Dose titration of test compounds were conducted in Hct116, DLD-1, or LoVo cell lines. In brief, cells were plated in 384-well plates and a selected candidate drug compound was added in a 10-point 2-fold serial dilution. […] Hct116 cells were plated at 50,000 cells per 15 cm dish and treated with GI50-GI90 doses of test compound for 2-4 weeks until individual colonies of cells were visible on the plate.

[2] = tested on: DLD-1 resistant cell line clone #82 (p97 A569A/T); assay: GI50 fold-change, resistant clone #82 vs parental; conditions: Clone #82, DLD-1, resistance generated with compound 4, G1705G/A / A569A/T; 72 hrs
Description: (§2) Dose titration of test compounds were conducted in Hct116, DLD-1, or LoVo cell lines. In brief, cells were plated in 384-well plates and a selected candidate drug compound was added in a 10-point 2-fold serial dilution.

[3] = tested on: DLD-1 resistant cell line clone #61 (p97 I620I/L); assay: GI50 fold-change, resistant clone #61 vs parental; conditions: Clone #61, DLD-1, resistance generated with compound 4, T1859T/C / I620I/L; 72 hrs
Description: as §2

[4] = tested on: Hct116 resistant cell line clone #6 (p97 A528T); assay: GI50 fold-change, resistant clone #6 vs parental; conditions: Clone #6, Hct116, resistance generated with compound 2, G1582 / A528T; 72 hrs
Description: as §2

[5] = tested on: Hct116 resistant cell line clone #152 (p97 T688I); assay: GI50 fold-change, resistant clone #152 vs parental; conditions: Clone #152, Hct116, resistance generated with compound 4, C2063T / T688I, 72 hrs
Description: as §1

[6] = tested on: Hct116 resistant cell line clone #45 (p97 F539I); assay: GI50 fold-change, resistant clone #45 vs parental; conditions: Clone #45, Hct116, resistance generated with compound 4, T1615A / F539I; 72 hrs
Description: as §2

[7] = tested on: DLD-1 resistant cell line clone #87 (p97 S541P); assay: GI50 fold-change, resistant clone #87 vs parental; conditions: Clone #87, DLD-1, resistance generated with compound 4, T1621T/C / S541P; 72 hrs
Description: as §2

[8] = tested on: Hct116 resistant cell line clone #25 (p97 P500T); assay: GI50 fold-change, resistant clone #25 vs parental; conditions: Clone #25, Hct116, resistance generated with compound 4, C1498A / P500T; 72 hrs
Description: as §2

[9] = tested on: Hct116 resistant cell line clone #117 (p97 L482I); assay: GI50 fold-change, resistant clone #117 vs parental; conditions: Clone #117, Hct116, resistance generated with compound 4, C1444A / L482I; 72 hrs
Description: as §2

[10] = tested on: DLD-1 resistant cell line clone #58 (p97 D649D/N); assay: GI50 fold-change, resistant clone #58 vs parental; conditions: Clone #58, DLD-1, resistance generated with compound 4, G1945G/A / D649D/N; 72 hrs
Description: as §2

[11] = tested on: DLD-1 resistant cell line clone #83 (p97 N660N/D); assay: GI50 fold-change, resistant clone #83 vs parental; conditions: Clone #83, DLD-1, resistance generated with compound 4, A1978G/A / N660N/D; 72 hrs
Description: as §2

[12] = tested on: Hct116 resistant cell line clone #42 (p97 P472A); assay: GI50 fold-change, resistant clone #42 vs parental; conditions: Clone #42, Hct116, resistance generated with compound 4, C1414G / P472A; 72 hrs
Description: as §2

[13] = tested on: Hct116 resistant cell line clone #30 (p97 F516L); assay: GI50 fold-change, resistant clone #30 vs parental; conditions: Clone #30, Hct116, resistance generated with compound 4, T1546C / F516L; 72 hrs
Description: as §2

[14] = tested on: Hct116 resistant cell line clone #139 (p97 P472S); assay: GI50 fold-change, resistant clone #139 vs parental; conditions: Clone #139, Hct116, resistance generated with compound 4, C1414T / P472S; 72 hrs
Description: as §2

[15] = tested on: DLD-1 resistant cell line clone #64 (p97 N660N/S); assay: GI50 fold-change, resistant clone #64 vs parental; conditions: Clone #64, DLD-1, resistance generated with compound 4, A1979G/A / N660N/S; 72 hrs
Description: as §2

[16] = tested on: LoVo resistant cell line clone #221 (p97 V474V/A); assay: GI50 fold-change, resistant clone #221 vs parental; conditions: Clone #221, LoVo, resistance generated with compound 4, T1421C/T / V474V/A; 72 hrs
Description: as §1

[17] = tested on: Hct116 resistant cell line clone #34 (p97 E470D/E); assay: GI50 fold-change, resistant clone #34 vs parental; conditions: Clone #34, Hct116, resistance generated with compound 4, G1410T/G / E470D/E; 72 hrs
Description: as §2

[18] = tested on: Hct116 resistant cell line clone #90 (p97 Q473P); assay: GI50 fold-change, resistant clone #90 vs parental; conditions: Clone #90, Hct116, resistance generated with compound 4, A1418C / Q473P; 72 hrs
Description: as §2

[19] = tested on: Hct116 resistant cell line clone #33 (p97 P472L); assay: GI50 fold-change, resistant clone #33 vs parental; conditions: Clone #33, Hct116, resistance generated with compound 4, C1415T / P472L; 72 hrs
Description: as §2

[20] = tested on: Hct116 resistant cell line clone #137 (p97 T475I); assay: GI50 fold-change, resistant clone #137 vs parental; conditions: Clone #137, Hct116, resistance generated with compound 4, C1424T / T475I; 72 hrs
Description: as §2

[21] = tested on: Hct116 resistant cell line clone #22 (p97 N660D); assay: GI50 fold-change, resistant clone #22 vs parental; conditions: Clone #22, Hct116, resistance generated with compound 4, A1978G / N660D; 72 hrs
Description: as §2

[22] = tested on: Hct116 resistant cell line clone #29 (p97 N660K); assay: GI50 fold-change, resistant clone #29 vs parental; conditions: Clone #29, Hct116, resistance generated with compound 4, C1980A / N660K; 72 hrs
Description: as §2

[23] = tested on: Hct116 resistant cell line clone #207 (p97 V485D); assay: GI50 fold-change, resistant clone #207 vs parental; conditions: Clone #207, Hct116, resistance generated with compound 4, T1454A / V485D; 72 hrs
Description: as §2

[24] = tested on: Hct116 resistant cell line clone #31 (p97 C535Y); assay: GI50 fold-change, resistant clone #31 vs parental; conditions: Clone #31, Hct116, resistance generated with compound 4, G1604A / C535Y; 72 hrs
Description: as §2

[25] = tested on: Hct116 resistant cell line clone #27 (p97 T688A); assay: GI50 fold-change, resistant clone #27 vs parental; conditions: Clone #27, Hct116, resistance generated with compound 4, A2062G / T688A; 72 hrs
Description: as §2

[26] = tested on: Hct116 resistant cell line clone #47 (p97 E498D); assay: GI50 fold-change, resistant clone #47 vs parental; conditions: Clone #47, Hct116, resistance generated with compound 4, G1494T / E498D; 72 hrs
Description: as §2

[27] = tested on: Hct116 resistant cell line clone #180 (p97 A569T); assay: GI50 fold-change, resistant clone #180 vs parental; conditions: Clone #180, Hct116, resistance generated with compound 4, G1705A / A569T; 72 hrs
Description: as §2

[28] = tested on: Hct116 resistant cell line clone #1 (p97 D649N); assay: GI50 fold-change, resistant clone #1 vs parental; conditions: Clone #1, Hct116, resistance generated with compound 2, G1945A / D649N; 72 hrs
Description: as §2

## Cc1cc2c(C(N)=O)cccc2n1-c1nc2c(c(NCc3ccccc3)n1)CNCC2 [Compound 3, 1-[4-(benzylamino)-5H,6H,7H,8H-pyrido[4,3-d]pyrimidin-2-yl]-2-methyl-1H-indole-4-carboxamide]
[1]
  Fold Change in GI50 Compared to Parental Cell Line: 1.6 fold
[2]
  Fold Change in GI50 Compared to Parental Cell Line: 4.9 fold
[3]
  Fold Change in GI50 Compared to Parental Cell Line: 1.0 fold
[4]
  Fold Change in GI50 Compared to Parental Cell Line: 13.4 fold
[5]
  Fold Change in GI50 Compared to Parental Cell Line: 40.2 fold
[6]
  Fold Change in GI50 Compared to Parental Cell Line: 6.9 fold
[7]
  Fold Change in GI50 Compared to Parental Cell Line: 34.6 fold
[8]
  Fold Change in GI50 Compared to Parental Cell Line: 2.2 fold
[9]
  Fold Change in GI50 Compared to Parental Cell Line: 4.4 fold
[10]
  Fold Change in GI50 Compared to Parental Cell Line: 2.0 fold
[11]
  Fold Change in GI50 Compared to Parental Cell Line: 2.4 fold
[12]
  Fold Change in GI50 Compared to Parental Cell Line: 7.0 fold
[13]
  Fold Change in GI50 Compared to Parental Cell Line: 10.0 fold
[14]
  Fold Change in GI50 Compared to Parental Cell Line: 4.2 fold
[15]
  Fold Change in GI50 Compared to Parental Cell Line: 1.2 fold
[16]
  Fold Change in GI50 Compared to Parental Cell Line: 4.1 fold

## Cc1cc2c(CN)cccc2n1-c1nc2c(c(NCc3ccccc3)n1)CCCC2 [Compound 6, 2-[4-(aminomethyl)-2-methyl-1H-indol-1-yl]-N-benzyl-5,6,7,8-tetrahydroquinazolin-4-amine]
[17]
  Fold Change in GI50 Compared to Parental Cell Line: 2.7 fold
[1]
  Fold Change in GI50 Compared to Parental Cell Line: 1.6 fold
[18]
  Fold Change in GI50 Compared to Parental Cell Line: 2.1 fold
[2]
  Fold Change in GI50 Compared to Parental Cell Line: 4.5 fold
[19]
  Fold Change in GI50 Compared to Parental Cell Line: 5.3 fold
[20]
  Fold Change in GI50 Compared to Parental Cell Line: 2.8 fold
[3]
  Fold Change in GI50 Compared to Parental Cell Line: 3.3 fold
[21]
  Fold Change in GI50 Compared to Parental Cell Line: 1.8 fold
[22]
  Fold Change in GI50 Compared to Parental Cell Line: 3.8 fold
[23]
  Fold Change in GI50 Compared to Parental Cell Line: 2.7 fold
[5]
  Fold Change in GI50 Compared to Parental Cell Line: 1.4 fold
[5]; listed as compound 6
  Fold Change in GI50 Compared to Parental Cell Line: 1.4 fold and 1.42 fold
[6]
  Fold Change in GI50 Compared to Parental Cell Line: 3.4 fold
[7]
  Fold Change in GI50 Compared to Parental Cell Line: 0.9 fold
[24]
  Fold Change in GI50 Compared to Parental Cell Line: 3.3 fold
[8]
  Fold Change in GI50 Compared to Parental Cell Line: 1.9 fold
[9]
  Fold Change in GI50 Compared to Parental Cell Line: 2.3 fold
[10]
  Fold Change in GI50 Compared to Parental Cell Line: 2.0 fold
[11]
  Fold Change in GI50 Compared to Parental Cell Line: 1.3 fold
[12]
  Fold Change in GI50 Compared to Parental Cell Line: 3.5 fold
[13]
  Fold Change in GI50 Compared to Parental Cell Line: 4.1 fold
[14]
  Fold Change in GI50 Compared to Parental Cell Line: 3.5 fold
[25]
  Fold Change in GI50 Compared to Parental Cell Line: 2.3 fold
[26]
  Fold Change in GI50 Compared to Parental Cell Line: 1.8 fold
[15]
  Fold Change in GI50 Compared to Parental Cell Line: 2.7 fold
[27]
  Fold Change in GI50 Compared to Parental Cell Line: 3.4 fold
[16]
  Fold Change in GI50 Compared to Parental Cell Line: 2.2 fold

## COc1nc2ccccc2n1-c1nc2c(c(NCc3ccccc3)n1)CCCC2 [Compound 2, N-benzyl-2-(2-methoxy-1H-1,3-benzodiazol-1-yl)-5,6,7,8-tetrahydroquinazolin-4-amine]
[1]
  Fold Change in GI50 Compared to Parental Cell Line: 1.3 fold
[28]
  Fold Change in GI50 Compared to Parental Cell Line: 4.5 fold
[3]
  Fold Change in GI50 Compared to Parental Cell Line: 1.1 fold
[5]
  Fold Change in GI50 Compared to Parental Cell Line: 2.1 fold
[7]
  Fold Change in GI50 Compared to Parental Cell Line: 1.3 fold
[10]
  Fold Change in GI50 Compared to Parental Cell Line: 1.4 fold
[11]
  Fold Change in GI50 Compared to Parental Cell Line: 2.6 fold
[15]
  Fold Change in GI50 Compared to Parental Cell Line: 0.6 fold
[16]
  Fold Change in GI50 Compared to Parental Cell Line: 2.2 fold
